In brackets after ≈: the same amount, converted by molar mass.

In the test the test system is Mycobacterium tuberculosis. The test is described as follows: Antimycobacterial activity against rifampin,isoniazid-resistant Mycobacterium tuberculosis expressing rpoB/katG mutant after 10 days by microbroth dilution method. The class given is functional. (Dilution methods test growth across graded concentrations, often in twofold steps.)
With `c1csc(-c2ncncc2-c2cc3ccccc3s2)c1`, the MIC (commonly the lowest concentration that inhibits growth of the organism) was found to be 21.23 µM (≈ 6.25 µg/mL).

As for `c1ccc(-c2ccc(-c3ncncc3-c3ccsc3)s2)cc1`, the MIC stood at 19.5 µM (≈ 6.25 µg/mL).

The compound `Brc1ccc(-c2ncncc2-c2cc3ccccc3s2)s1` returned an MIC of 33.49 µM (≈ 12.5 µg/mL). On to `c1ccc(-c2ccc(-c3cncnc3)s2)cc1`, for which the MIC was found to be 26.23 µM (≈ 6.25 µg/mL). `c1csc(-c2ccc(-c3ncncc3-c3cccs3)s2)c1`: the minimum inhibitory concentration (MIC) was 2.14 µM (≈ 0.699 µg/mL). `Brc1ccc(-c2ncncc2-c2csc3ccccc23)s1` gave an MIC of 8.3 µM (≈ 3.1 µg/mL).

As to `Brc1cncnc1`, the MIC was determined as 78.62 µM (≈ 12.5 µg/mL).

With `c1csc(-c2ccc(-c3cncnc3)s2)c1`, the MIC is 25.58 µM (≈ 6.25 µg/mL). Then `c1csc(-c2ccc(-c3ncncc3-c3ccsc3)s2)c1`, with 19.14 µM (≈ 6.25 µg/mL); and `Brc1ccc(-c2ncncc2-c2cccs2)s1`, with 38.67 µM (≈ 12.5 µg/mL). `c1csc(-c2cncnc2)c1` registered an MIC of 38.53 µM (≈ 6.25 µg/mL). Then `c1ccc2sc(-c3cncnc3)cc2c1`, with 58.89 µM (≈ 12.5 µg/mL). In turn, `c1ccc(-c2ccc(-c3ncncc3-c3cc4ccccc4s3)s2)cc1` had an MIC of 8.37 µM (≈ 3.1 µg/mL). In turn, `Brc1ccc(-c2ncncc2-c2ccsc2)s1` had an MIC of 19.34 µM (≈ 6.25 µg/mL).

As for `c1csc(-c2ccc(-c3ncncc3-c3cc4ccccc4s3)s2)c1`, the minimum inhibitory concentration (MIC) was found to be 33.2 µM (≈ 12.5 µg/mL).

The compound `c1csc(-c2ccc(-c3ncncc3-c3csc4ccccc34)s2)c1` showed a minimum inhibitory concentration (MIC) of 0.98 µM (≈ 0.369 µg/mL). The compound `c1ncc(-c2ccsc2)cn1` gave an MIC of 77.06 µM (≈ 12.5 µg/mL). For the compound `c1csc(-c2cncnc2-c2cccs2)c1`, the minimum inhibitory concentration (MIC) was 12.69 µM (≈ 3.1 µg/mL). Consider `c1ccc(-c2ccc(-c3ncncc3-c3csc4ccccc34)s2)cc1`, for which the MIC amounted to 0.4 µM (≈ 0.148 µg/mL). Then `c1ccc2c(-c3cncnc3)csc2c1`, with 7.07 µM (≈ 1.5 µg/mL). `Brc1ccc(-c2ncncc2Br)s1` gave an MIC of 9.69 µM (≈ 3.1 µg/mL).

As to `c1csc(-c2ncncc2-c2ccsc2)c1`, the minimum inhibitory concentration (MIC) came out at 25.58 µM (≈ 6.25 µg/mL). As for `c1ccc(-c2ccc(-c3ncncc3-c3cccs3)s2)cc1`, the figure is 39.01 µM (≈ 12.5 µg/mL). `Brc1ccc(-c2cncnc2)s1` returned an MIC of 51.84 µM (≈ 12.5 µg/mL). For `c1csc(-c2ncncc2-c2csc3ccccc23)c1`, the MIC came out at 42.46 µM (≈ 12.5 µg/mL). With `c1csc(-c2ccc(-c3ccncn3)s2)c1`, the minimal inhibitory concentration (MIC) turned out to be 51.16 µM (≈ 12.5 µg/mL).

These data come from ChEMBL document CHEMBL3421531, “Synthesis, and structure-activity relationship for C(4) and/or C(5) thienyl substituted pyrimidines, as a new family of antimycobacterial compounds” (Eur J Med Chem, 2015).
